Laboratory results published in patent US11332485B2, “Penicillin-binding protein inhibitors” (priority 2017, dated 2022).

Legend:
S. aureus ATCC 29213 = assay: Broth microdilution MIC assay; assay type: cell-based; details: Staphylococcus aureus, ATCC29213; broth microdilution, 16-20 hours at 37° C.; read-out: S. aureus 29213 MIC
Method: (§1) To determine the ability of test compounds to potentiate the inhibition of the growth of bacterial strains, classic cell based broth microdilution MIC assays were employed. MIC assays are performed according to CLSI methods except where otherwise noted (CLSI, 2011 and CLSI, 2009). The reference strain S. aureus ATCC 29213 and the hyper-permeable E. coli 901C were used to determine the ability of the PBP compounds to inhibit bacterial growth. Briefly, cryo-preserved bacterial cultures of clinical strains are streaked for isolation on appropriate agar medium, in this case Mueller Hinton II agar. Following incubation to allow formation of colonies these plates are sealed with parafilm and stored refrigerated for up to two weeks. For preparation of assay inocula and to ensure low variability, at least 5 colonies are picked from the agar plates with an inoculating loop and aseptically transferred to a culture tube containing 3 mL of Mueller-Hinton Broth (supplemented with divalent cations to required levels based on Manufacturers' certification). The broth culture is grown for 3-5 hours at 37° C. with shaking at 200 rpm. Meanwhile, 2-fold serial dilutions of test compounds are conducted in a 96 well plate with a final volume of 75 μL per well at 2-fold the final desired concentration. After the dilution plates are set up the growing cultures are then diluted in a cuvette containing MH II broth and the optical density is measured at 600 nm. Inocula are diluted such that 75 μL of this culture in Mueller-Hinton Broth results in a starting bacterial concentration of 5×10^5 CFU/mL when added to the dilution plates. The plates are incubated 16-20 hours at 37° C. The MIC is read visually as the lowest concentration well with no bacterial growth.

[1] = test system: hyper-permeable E. coli 901C; assay: Broth microdilution MIC assay; assay type: cell-based; details: Escherichia coli, read-out: E. coli 901C MIC
Method: as §1

E. coli DH5α/pLBII = assay: Broth microdilution MIC assay, empty vector control strain; assay type: cell-based; details: Escherichia coli, read-out: E. coli DH5α/pLBII Microbiological Activity (MIC)
Method: as §1
(§2) To determine if test compounds were affected by CTX-M15, the most abundant extended spectrum β-lactamase in clinical settings worldwide, the inhibition of the growth of an engineered strain of Escherichia coli harboring CTX-M15 was tested. This strain was constructed by cloning the gene encoding CTX-M15 into the NdeI and BamHI restriction endonuclease sites of plasmid pLBII, placing the gene(s) under the control of the Lac promoter. The constructed expression plasmid for CTX-M15 was used to transform competent E. coli DH5a cells to make the engineered strain, including an empty pLBII vector control strain. The classic cell based broth microdilution MIC assay was employed as described above with the addition of control antibiotics, known to be degraded by β-lactamases (Ceftazidime, piperacillin and piperacillin+tazobactam).

[2] = test system: E. coli DH5α/pLBII-CTX-M15; assay: Broth microdilution MIC assay, engineered strain producing CTX-M15; assay type: cell-based, Escherichia coli; details: for MIC: Escherichia coli, read-out: E. coli DH5α/pLBII-CTX-M15 Microbiological Activity (MIC); for MIC in the CTX-M15 producer compared with the parent strain with the empty pLBII plasmid: comparison in words
Method: as §1, §2

Structure (SMILES) | MIC (S. aureus ATCC 29213) [µg/mL] | MIC [1] [µg/mL] | MIC (E. coli DH5α/pLBII) [µg/mL] | MIC [2] [µg/mL] | MIC in the CTX-M15 producer compared with the parent strain with the empty pLBII plasmid [2]
COc1ccc(C(=O)NC(C(=O)N[C@H]2Cc3cccc(C(=O)O)c3OB2O)c2csc(N)n2)c(=O)[nH]1 (stereo partly drawn) [Example 46, (3R)-3-(2-(2-aminothiazol-4-yl)-2-(6-methoxy-2-oxo-1,2-dihydropyridine-3-carboxamido)acetamido)-2-hydroxy-3,4-dihydro-2H-benzo[e][1,2]oxaborinine-8-carboxylic acid] | > 128 | < 64 | 128 to 256 | 128 to 256 | –
CCNC(=O)NC(C(=O)N[C@H]1Cc2cccc(C(=O)O)c2OB1O)c1csc(N)n1 (stereo partly drawn) [Example 25, (3R)-3-(2-(2-aminothiazol-4-yl)-2-(3-ethylureido)acetamido)-2-hydroxy-3,4-dihydro-2H-benzo[e][1,2]oxaborinine-8-carboxylic acid] | > 128 | < 64 | 32 to 64 | 32 to 64 | –
COc1ccc([C@H](N)C(=O)N[C@H]2Cc3cccc(C(=O)O)c3OB2O)cc1 [Example 5, (R)-3-((S)-2-amino-2-(4-methoxyphenyl)acetamido)-2-hydroxy-3,4-dihydro-2H-benzo[e][1,2]oxaborinine-8-carboxylic acid] | 64 to 128 | > 128 | > 512 | > 512 | –
Nc1nc(C(NC(=O)Cc2ncccn2)C(=O)N[C@H]2Cc3cccc(C(=O)O)c3OB2O)cs1 (stereo partly drawn) [Example 21, (3R)-3-(2-(2-aminothiazol-4-yl)-2-(2-(pyrimidin-2-yl)acetamido)acetamido)-2-hydroxy-3,4-dihydro-2H-benzo[e][1,2]oxaborinine-8-carboxylic acid] | 64 to 128 | 64 to 128 | > 512 | > 512 | –
Nc1nc(C(NC(=O)CCB(O)O)C(=O)N[C@H]2Cc3cccc(C(=O)O)c3OB2O)cs1 (stereo partly drawn) [Example 89, (3R)-3-(2-(2-aminothiazol-4-yl)-2-(3-boronopropanamido)acetamido)-2-hydroxy-3,4-dihydro-2H-benzo[e][1,2]oxaborinine-8-carboxylic acid] | > 128 | > 128 | – | 128 to 256 | –
Nc1nc(C(NS(=O)(=O)N2CCOCC2)C(=O)N[C@H]2Cc3cccc(C(=O)O)c3OB2O)cs1 (stereo partly drawn) [Example 24, (3R)-3-(2-(2-aminothiazol-4-yl)-2-(morpholine-4-sulfonamido)acetamido)-2-hydroxy-3,4-dihydro-2H-benzo[e][1,2]oxaborinine-8-carboxylic acid] | > 128 | < 64 | 128 to 256 | 128 to 256 | –
CCCN1CCN(C(=O)NC(C(=O)N[C@H]2Cc3cccc(C(=O)O)c3OB2O)c2csc(N)n2)C(=O)C1=O (stereo partly drawn) [Example 51, (3R)-3-(2-(2-aminothiazol-4-yl)-2-(2,3-dioxo-4-propylpiperazine-1-carboxamido)acetamido)-2-hydroxy-3,4-dihydro-2H-benzo[e][1,2]oxaborinine-8-carboxylic acid] | 64 to 128 | < 64 | 8 to 16 | 8 to 16 | –
Nc1nc(C(NC(=O)N2CCOCC2)C(=O)N[C@H]2Cc3cccc(C(=O)O)c3OB2O)cs1 (stereo partly drawn) [Example 18, (3R)-3-(2-(2-aminothiazol-4-yl)-2-(morpholine-4-carboxamido)acetamido)-2-hydroxy-3,4-dihydro-2H-benzo[e][1,2]oxaborinine-8-carboxylic acid] | > 128 | < 64 | 128 to 256 | 128 to 256 | –
CCN1CCN(C(=O)N[C@@H](C(=O)N[C@@H]2C(=O)N3[C@@H]2SC(C)(C)[C@@H]3C(=O)O)c2ccccc2)C(=O)C1=O [piperacillin, reference compound] | – | – | < 1 | 128 to 256 | weaker MICs
Nc1nc(C(NCC(=O)O)C(=O)N[C@H]2Cc3cccc(C(=O)O)c3OB2O)cs1 (stereo partly drawn) [Example 10, (3R)-3-(2-(2-aminothiazol-4-yl)-2-((carboxymethyl)amino)acetamido)-2-hydroxy-3,4-dihydro-2H-benzo[e][1,2]oxaborinine-8-carboxylic acid] | > 128 | – | – | – | –
CC(=O)N1CCN(C(=O)NC(C(=O)N[C@H]2Cc3cccc(C(=O)O)c3OB2O)c2csc(N)n2)C1=O (stereo partly drawn) [Example 71, (3R)-3-(2-(3-acetyl-2-oxoimidazolidine-1-carboxamido)-2-(2-aminothiazol-4-yl)acetamido)-2-hydroxy-3,4-dihydro-2H-benzo[e][1,2]oxaborinine-8-carboxylic acid] | 64 to 128 | < 64 | – | – | –
COC(=O)CCNC(=O)NC(C(=O)N[C@H]1Cc2cccc(C(=O)O)c2OB1O)c1csc(N)n1 (stereo partly drawn) [Example 88, (3R)-3-(2-(2-aminothiazol-4-yl)-2-(3-(3-methoxy-3-oxopropyl)ureido)acetamido)-2-hydroxy-3,4-dihydro-2H-benzo[e][1,2]oxaborinine-8-carboxylic acid] | > 128 | < 64 | – | 128 to 256 | –
CCN1CCN(C(=O)N[C@H](C(=O)N[C@H]2Cc3cccc(C(=O)O)c3OB2O)C(O)c2ccccc2)C(=O)C1=O (single isomer, unassigned) [Example 81] | > 128 | > 128 | – | – | –
Nc1nc(C(NC(=O)NCCC(=O)O)C(=O)N[C@H]2Cc3cccc(C(=O)O)c3OB2O)cs1 (stereo partly drawn) [Example 87, (3R)-3-(2-(2-aminothiazol-4-yl)-2-(3-(2-carboxyethyl)ureido)acetamido)-2-hydroxy-3,4-dihydro-2H-benzo[e][1,2]oxaborinine-8-carboxylic acid] | > 128 | 64 to 128 | – | 128 to 256 | –
CC(C)(O/N=C(\C(=O)N[C@@H]1C(=O)N2C(C(=O)[O-])=C(C[n+]3ccccc3)CS[C@H]12)c1csc(N)n1)C(=O)O [ceftazidime, reference compound] | – | – | < 1 | 8 to 16 | weaker MICs
NCC1CCCN(C(=O)NC(C(=O)N[C@H]2Cc3cccc(C(=O)O)c3OB2O)c2csc(N)n2)C1 (stereo partly drawn) [Example 76, (3R)-3-(2-(3-(aminomethyl)piperidine-1-carboxamido)-2-(2-aminothiazol-4-yl)acetamido)-2-hydroxy-3,4-dihydro-2H-benzo[e][1,2]oxaborinine-8-carboxylic acid] | > 128 | 64 to 128 | – | – | –
NCC1CCN(C(=O)NC(C(=O)N[C@H]2Cc3cccc(C(=O)O)c3OB2O)c2csc(N)n2)CC1 (stereo partly drawn) [Example 75, (3R)-3-(2-(4-(aminomethyl)piperidine-1-carboxamido)-2-(2-aminothiazol-4-yl)acetamido)-2-hydroxy-3,4-dihydro-2H-benzo[e][1,2]oxaborinine-8-carboxylic acid] | > 128 | < 64 | – | – | –
CS(=O)(=O)N1CCC(C(=O)NC(C(=O)N[C@H]2Cc3cccc(C(=O)O)c3OB2O)c2csc(N)n2)CC1 (stereo partly drawn) [Example 70, (3R)-3-(2-(2-aminothiazol-4-yl)-2-(1-(methylsulfonyl)piperidine-4-carboxamido)acetamido)-2-hydroxy-3,4-dihydro-2H-benzo[e][1,2]oxaborinine-8-carboxylic acid] | > 128 | < 64 | – | – | –
CCN1CCN(C(=O)NC(C(=O)N[C@H]2Cc3cccc(C(=O)O)c3OB2O)C(C)c2ccccc2)C(=O)C1=O (stereo partly drawn) [Example 84, (3R)-3-(2-(4-ethyl-2,3-dioxopiperazine-1-carboxamido)-3-phenylbutanamido)-2-hydroxy-3,4-dihydro-2H-benzo[e][1,2]oxaborinine-8-carboxylic acid] | 64 to 128 | < 64 | – | 128 to 256 | –
CCN1CCN(C(=O)N[C@@H](C(=O)N[C@H]2Cc3cccc(C(=O)O)c3OB2O)C(O)c2ccccc2)C(=O)C1=O (single isomer, unassigned) [Example 80] | 64 to 128 | < 64 | – | – | –
Nc1nc(C(NC(=O)NCC(=O)O)C(=O)N[C@H]2Cc3cccc(C(=O)O)c3OB2O)cs1 (stereo partly drawn) [Example 90, (3R)-3-(2-(2-aminothiazol-4-yl)-2-(3-(carboxymethyl)ureido)acetamido)-2-hydroxy-3,4-dihydro-2H-benzo[e][1,2]oxaborinine-8-carboxylic acid] | > 128 | < 64 | – | 128 to 256 | –
